Assay results as given in publication PMC10214526, “Semisynthetic LC3 Probes for Autophagy Pathways Reveal a Noncanonical LC3 Interacting Region Motif Crucial for the Enzymatic Activity of Human ATG3” (ACS Central Science, 2023).

Tests used:
Format in all cases: biochemical, human
ATG3 [1] = experiment: Reaction (cross-linking) of Ubl activity-based probes with recombinant ATG3 and variants; conditions: probe 15 μM; ATG3 wt, C264A and ΔLIR 5 μM; SDS-PAGE (Figure S9)
ATG3 C1 alanine variants = experiment: Alanine screen: cross-linking of probe 2 with ATG3 C1 alanine variants; conditions: probe 2 15 μM, PBS, 37 °C, 30 min, n = 2
Procedure: Figure 4 Dissection of interactions between GABARAP and LIR^ATG3 by alanine scanning. GABARAP probe 2 (15 μM) was reacted with ATG3 C1 alanine variants (15 μM) for 30 min. Coomassie Blue stained SDS-PAGE gel showing modification of ATG3 C1 variants with GABARAP methyl fumarate. The indicated ATG3 residues were mutated to alanine. Cross-linking efficiency was estimated by gel densitometry and normalized to the reaction with ATG3 C1. Data are presented as average values ± s.d. n = 2 independent experiments. Full-gel images are available in the Supplementary Information.
Farnung et al. Supplementary Information
SDS-PAGE (8-16%, Bio-Rad) and visualized by Coomassie staining. Gel bands were quantified by gel densitometry using ImageLab (Bio-Rad).
ATG3 C1 (15 μM) was mixed with GABARAP methyl fumarate 2 (15 μM) in PBS, and the reaction mixture was incubated at 37 °C for 30 min. The reaction was quenched by addition of 2x Laemmli buffer and boiled at 95 °C for 5 min. Samples were resolved by SDS-PAGE (8-16%, Bio-Rad) and visualized by Coomassie staining. Gel bands were quantified by gel densitometry using ImageLab […]
3.9. Structure prediction […]
! ! ( )"% - ) ( $&, . "#*( *"&% % *! "#*( * &% %*( * +% ( ( + '( ))+( ! )&#+*"&%- )*("*+( * -"*! * % %*(" + *&& * "% (+ ' '*" ! […]

ATG3 [2] = experiment: Reaction (cross-linking) of Ubl activity-based probes with recombinant ATG3 and variants; conditions: probe 15 μM, SDS-PAGE
Procedure: Figure 1 Modification of ATG3 with GABARAP ABPs depends on LIR^ATG3. a. Characterization of GABARAP activity-based probes, 1 and 2, obtained by hydrazide-acylation. Deconvoluted mass-spectrum (ESI) of GABARAP(ΔG116)–NHNH α-chloroacetyl 1. Expected mass 13707 Da. Deconvoluted mass-spectrum (ESI) of GABARAP(ΔG116)–NHNH methyl-fumarate 2. Expected mass 13743 Da. b. […] The reaction was allowed to proceed for 1 h and was analyzed by SDS-PAGE and Coomassie Blue staining. c. ColabFold-predicted structure of the protein-complex of ATG3 and GABARAP. Side-chain atoms are shown for the predicted LIR motif in ATG3 (90–112). d. Reaction of 2 (15 μM) with ATG3 variants C1, C0, and ΔLIR (15 μM). ATG3 C1 contains only active-site cysteine C264. ATG3 C0 contains no cysteines. ATG3 ΔLIR lacks amino acids 95–111. Reaction was allowed to proceed for 1 h and was analyzed by SDS-PAGE and Coomassie Blue staining. Full-gel images for b and d are available in the Supplementary Information.
We were intrigued by the cross-linking efficiency of 2 with ATG3 and sought to investigate the origin of this efficiency by generating a C1 variant of ATG3 that only contains the catalytic cysteine 264 and a corresponding C0 variant containing no cysteines. […] In general, the affinity of E2s for their cognate Ubls are quite low, as the thioester transfer from the E1 to the E2 enzyme is facilitated by additional interactions from the UFD domain of the E1 enzyme.[23] […]
Upon completion the solution was dialyzed against 25 mM
HEPES, 200 mM NaCl pH 7.2 at 4 °C. Cleaved intein was removed using gravity Ni-NTA purification.
The flow-through was collected and combined with resin washes. The combined fractions were dialyzed and further purified using ion exchange.
3.3. Generation of GABARAP and LC3A hydrazides from SUMO-GABARAP/LC3A-Mxe GyrA-
SUMO-GABARAP/LC3A-Mxe GyrA-His6 fusion after Ni-NTA purification was dialyzed against intein cleavage buffer (25 mM HEPES, 500 mM NaCl, 1 mM EDTA pH 7.2 at 4 °C). After dialysis hydrazine monohydrate (75 mM) and MESNa (10 mM) was added and the pH adjusted to 7.8. The solution was allowed to stand at room temperature and monitored using LC-MS analysis. Upon completion the solution was dialyzed against 25 mM HEPES, 500 mM NaCl pH 7.2 at 4 °C. SENP1 (1 wt%) was added to cleave the SUMO-tag. The cleaved intein was removed using gravity Ni-NTA purification. […]
dialyzed and further purified using cation exchange using a buffer 25 mM Tris pH 8.0 and a gradient of […] in the same buffer over 25 column volumes. The product fractions were pooled, concentrated, and stored at –80 °C until further use.
3.4. Synthesis of symmetrical anhydrides
The carboxylic acid was dissolved in CH2Cl2 (300 mM) and dicyclohexylcarbodiimide (0.5 eqiv) was added in one portion. The reaction was stirred under N2 for 18 h. The suspension was filtered and concentrated to ~10% of the initial volume. The solution was placed at 4 °C for 1 h and filtered again.
The filtrate was concentrated to obtain the symmetrical anhydride which was used without further purification. Anhydrides can be stored at –20 °C for weeks.
3.5. Reaction of modified Ubl probes with E2s
Ubl probes (15 μM) were mixed with E2s (15 μM) in PBS. The mixture was incubated at 37 °C in a water bath for 0.5-3 h. The reaction was quenched by addition of 2x Laemmli buffer and boiled at 95 °C for 5 min. Samples were resolved by SDS-PAGE (8-16%, Bio-Rad) and visualized by […]
Coomassie staining. […]

In the case of “GABARAP(ΔG116)–NHNH methyl-fumarate [compound 2]”, the “LIR dependence of ATG3 wild-type modification” value (ATG3 [1]) was “dependent on LIRATG3”, the “Cross-linking with ATG3 D109 or T110 mutants” value (ATG3 C1 alanine variants; D109 or T110 to alanine, ATG3 C1 variant 15 μM) was “almost no effect on reaction efficiency” and the “Cross-linking with ATG3 E95 and I97 mutants” value (ATG3 C1 alanine variants; E95 and I97 to alanine, ATG3 C1 variant 15 μM) was “severely diminish cross-linking”. The “Cross-linking with ATG3 V108A” value (ATG3 C1 alanine variants; V108A, ATG3 C1 variant 15 μM, relative to ATG3 C1) was “significantly reduced the cross-linking efficiency”, the “Cross-linking with ATG3 W107 mutant” value (ATG3 C1 alanine variants; W107A, ATG3 C1 variant 15 μM, relative to ATG3 C1) was “almost completely abrogated the reaction” and the “Cross-linking with other ATG3 alanine mutants” value (ATG3 C1 alanine variants; majority of the other screened residues) was “at least some impact on the conjugation with GABARAP”. The “Reaction with ATG3 wt” value (ATG3 [2]; ATG3 15 μM, 1 h, Coomassie Blue) was “reacted with ATG3 efficiently leading to the formation of multiple ATG3–GABARAP bands”, the “Reaction with ATG3 C0” value (ATG3 [2]; ATG3 C0 (no cysteines) 15 μM) was “no reaction was observed” and the “Reaction with ATG3 C1” value (ATG3 [2]; ATG3 C1 (only active-site C264) 15 μM) was “excellent reactivity”. The “Reaction with ATG3 ΔLIR” value (ATG3 [2]; ATG3 C1 ΔLIR (Δ95–111) 15 μM) was “no complex formation” and the “Reaction with ATG3 C264A” value (ATG3 [2]; catalytically inactive ATG3 C264A 15 μM) was “loss of one ATG3–GABARAP band but did not abrogate additional bands for the complex”.
